Values joined by “and” are separate entries in the source; they are usually repeats but may differ in a detail not shown here. Equal entries are not always repeated. Toxic doses and inconclusive results are not listed. No stated cut-off is given here; in the data, active means T/C of 150% or more; inactive means T/C below 125%.
Test system: L1210 leukemia ip in BDF1 mice, survival T/C
Assay: NCI In Vivo Anticancer Drug Screen. Data for tumor model L1210 Leukemia (intraperitoneal) in B6D2F1 (BDF1) mice
Conditions: endpoint: mean survival time, higher = longer survival
In short: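 Tumor cells were implanted, animals were treated, and survival was followed. The result divides the treated measurement by the vehicle-control measurement.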

[1] = dose: 50.0 mg/kg/injection, schedule: Q01DX009 (ip), vehicle: saline
[2] = dose: 100.0 mg/kg/injection, schedule: Q01DX009 (ip), vehicle: saline
[3] = dose: 200.0 mg/kg/injection, schedule: Q01DX009 (ip), vehicle: saline
[4] = dose: 100.0 mg/kg/injection, schedule: Q04DX003 (ip), vehicle: saline with Tween-80
[5] = dose: 200.0 mg/kg/injection, schedule: Q04DX003 (ip), vehicle: saline with Tween-80
[6] = dose: 400.0 mg/kg/injection, schedule: Q04DX003 (ip), vehicle: saline with Tween-80
[7] = dose: 100.0 mg/kg/injection, schedule: Q04DX003 (ip), vehicle: Klucel (hydroxypropylcellulose) (HPC)
[8] = dose: 200.0 mg/kg/injection, schedule: Q04DX003 (ip), vehicle: Klucel (hydroxypropylcellulose) (HPC)
[9] = dose: 400.0 mg/kg/injection, schedule: Q04DX003 (ip), vehicle: Klucel (hydroxypropylcellulose) (HPC)
[10] = dose: 100.0 mg/kg/injection, schedule: Q01DX009 (ip), vehicle: Klucel (hydroxypropylcellulose) (HPC)
[11] = dose: 200.0 mg/kg/injection, schedule: Q01DX009 (ip), vehicle: Klucel (hydroxypropylcellulose) (HPC)
[12] = dose: 400.0 mg/kg/injection, schedule: Q01DX009 (ip), vehicle: Klucel (hydroxypropylcellulose) (HPC)

Measured: T/C

O/N=C/C=N/O.O/N=C/C=N/O.[Cl][Rh][Cl]
inactive: [1] 107 % of control | dose: 50.0 mg/kg/injection, schedule: Q04DX003 (ip), vehicle: saline 100 % of control | [2] 101 % of control | dose: 100.0 mg/kg/injection, schedule: Q04DX003 (ip), vehicle: saline 104 % of control | [3] 95 % of control | dose: 200.0 mg/kg/injection, schedule: Q04DX003 (ip), vehicle: saline 102 % of control | dose: 400.0 mg/kg/injection, schedule: Q01DX009 (ip), vehicle: saline 94 % of control | dose: 400.0 mg/kg/injection, schedule: Q04DX003 (ip), vehicle: saline 98 % of control

CCOC(=O)NC(C)(C)CN(C(=O)OCC)C(C)C
inactive: [4] 97 % of control | [5] 101 % of control | [6] 117 % of control

Cc1oc2ccc(O)c(N=Nc3cccc([N+](=O)[O-])c3)c2c1C
inactive: [7] 97 % of control | [8] 101 % of control | [9] 109 % of control

CCCCCn1c(C)cc(/C=C\c2ccc3cc(C)ccc3[n+]2C)c1C
inactive: dose: 0.5 mg/kg/injection, schedule: Q01DX001 (ip), vehicle: carboxymethylcellulose (CMC) 94 % of control | dose: 0.5 mg/kg/injection, schedule: Q01DX009 (ip), vehicle: saline sonified 116 % of control | dose: 0.5 mg/kg/injection, schedule: Q04DX003 (ip), vehicle: saline sonified 98 % of control | dose: 0.66 mg/kg/injection, schedule: Q01DX009 (ip), vehicle: saline 101 % of control | dose: 1.0 mg/kg/injection, schedule: Q01DX001 (ip), vehicle: carboxymethylcellulose (CMC) 97 % of control | dose: 1.0 mg/kg/injection, schedule: Q01DX009 (ip), vehicle: saline 100 % of control | dose: 1.0 mg/kg/injection, schedule: Q04DX003 (ip), vehicle: saline sonified 97 % of control | dose: 1.5 mg/kg/injection, schedule: Q01DX009 (ip), vehicle: saline 92 % of control | dose: 2.0 mg/kg/injection, schedule: Q01DX001 (ip), vehicle: carboxymethylcellulose (CMC) 97 % of control | dose: 2.0 mg/kg/injection, schedule: Q04DX003 (ip), vehicle: saline sonified 106 % of control

CCOC(=O)C1=C(C)NC(=O)NC1c1ccc(N=Cc2cc(Br)ccc2O)cc1 (centres undefined)
inactive: [4] 97 % of control | [5] 97 % of control | [6] 89 % of control

Cc1cccc2ccc3ccc4ccccc4c3c12
inactive: [4] 96 % of control | [5] 89 % of control | [6] 92 % of control

C[N+](C)(C)CCOc1ccccc1Cc1ccccc1
inactive: dose: 1.56 mg/kg/injection, schedule: Q01DX003 (ip), vehicle: saline 96 % of control | dose: 3.12 mg/kg/injection, schedule: Q01DX003 (ip), vehicle: saline 100 % of control | dose: 3.12 mg/kg/injection, schedule: Q01DX009 (ip), vehicle: saline 96 % of control and 100 % of control | dose: 6.25 mg/kg/injection, schedule: Q01DX003 (ip), vehicle: saline 96 % of control | dose: 6.25 mg/kg/injection, schedule: Q01DX009 (ip), vehicle: saline 106 % of control | dose: 12.5 mg/kg/injection, schedule: Q01DX009 (ip), vehicle: saline 105 % of control and 89 % of control | dose: 12.5 mg/kg/injection, schedule: Q04DX003 (ip), vehicle: saline 111 % of control

NC(N)=N/N=C\CCC/C=N/N=C(N)N
inactive: dose: 15.0 mg/kg/injection, schedule: Q01DX Z (ip), vehicle: saline 98 % of control | dose: 30.0 mg/kg/injection, schedule: Q01DX Z (ip), vehicle: saline 97 % of control | dose: 60.0 mg/kg/injection, schedule: Q01DX Z (ip), vehicle: saline 105 % of control | dose: 60.0 mg/kg/injection, schedule: Q01DX Z (oral), vehicle: other 95 % of control | dose: 120.0 mg/kg/injection, schedule: Q01DX Z (ip), vehicle: saline 94 % of control | dose: 120.0 mg/kg/injection, schedule: Q01DX Z (oral), vehicle: other 100 % of control | dose: 240.0 mg/kg/injection, schedule: Q01DX Z (oral), vehicle: other 97 % of control | dose: 480.0 mg/kg/injection, schedule: Q01DX Z (oral), vehicle: other 102 % of control

CC1(C)N=C(N)N=C(N)N1c1cccc(CCCCc2ccc(Cl)cc2Cl)c1
inactive: dose: 5.0 mg/kg/injection, schedule: Q01DX001 (ip), vehicle: saline 94 % of control | dose: 6.25 mg/kg/injection, schedule: Q04DX003 (ip), vehicle: saline with Tween-80 98 % of control | dose: 10.0 mg/kg/injection, schedule: Q01DX001 (ip), vehicle: saline 100 % of control | dose: 12.5 mg/kg/injection, schedule: Q04DX003 (ip), vehicle: saline with Tween-80 93 % of control | dose: 20.0 mg/kg/injection, schedule: Q01DX001 (ip), vehicle: saline 100 % of control | dose: 25.0 mg/kg/injection, schedule: Q04DX003 (ip), vehicle: Klucel (hydroxypropylcellulose) (HPC) 101 % of control | dose: 25.0 mg/kg/injection, schedule: Q04DX003 (ip), vehicle: saline with Tween-80 98 % of control | dose: 50.0 mg/kg/injection, schedule: Q04DX003 (ip), vehicle: Klucel (hydroxypropylcellulose) (HPC) 100 % of control | [7] 93 % of control

COC(=O)C(CSc1ccccc1)NC(=O)c1ccccc1 (centres undefined)
inactive: [7] 101 % of control | [8] 114 % of control | [9] 96 % of control

CN(C)c1ccc(/C=N/NC(=O)c2ccccc2NC(=O)c2ccccc2)cc1
inactive: [10] 89 % of control | [11] 100 % of control | [12] 89 % of control

CC(C)CN(CC(C)C)[N+](=O)[O-]
inactive: dose: 100.0 mg/kg/injection, schedule: Q01DX001 (ip), vehicle: Klucel (hydroxypropylcellulose) (HPC) 97 % of control | dose: 200.0 mg/kg/injection, schedule: Q01DX001 (ip), vehicle: Klucel (hydroxypropylcellulose) (HPC) 114 % of control | dose: 400.0 mg/kg/injection, schedule: Q01DX001 (ip), vehicle: Klucel (hydroxypropylcellulose) (HPC) 97 % of control

Cc1noc(C)c1CC1(Cc2c(C)noc2C)C(=O)CCC2(C)CCCC=C21 (centres undefined)
inactive: [10] 92 % of control | [7] 95 % of control | [11] 98 % of control | [8] 93 % of control | [12] 97 % of control | [9] 96 % of control

O=C(O)CN1C(=O)C2C3CCC(C3)C2C1=O (centres undefined)
inactive: [4] 97 % of control | [5] 97 % of control | [6] 94 % of control

CC(=O)Nc1ccccc1C#N
inactive: dose: 100.0 mg/kg/injection, schedule: Q04DX003 (ip), vehicle: saline sonified 104 % of control | dose: 200.0 mg/kg/injection, schedule: Q04DX003 (ip), vehicle: saline sonified 101 % of control | dose: 400.0 mg/kg/injection, schedule: Q04DX003 (ip), vehicle: saline sonified 97 % of control

CCOc1ccccc1NC(=S)NC1CCCCC1
inactive: [10] 97 % of control | [11] 100 % of control

O=[N+]([O-])c1ccc(C#CS(=O)(=O)c2ccccc2)cc1
inactive: [1] 104 % of control | [2] 96 % of control | [3] 96 % of control

CC(=O)O[C@H]1CC[C@@]2(C)C(=CC[C@H]3[C@@H]4C[C@@H](N5CC5)[C@H](C(C)=O)[C@@]4(C)CC[C@@H]32)C1
inactive: dose: 50.0 mg/kg/injection, schedule: Q01DX001 (sc), vehicle: steriod suspending solution 100 % of control | dose: 100.0 mg/kg/injection, schedule: Q01DX001 (sc), vehicle: steriod suspending solution 102 % of control | dose: 200.0 mg/kg/injection, schedule: Q01DX001 (sc), vehicle: steriod suspending solution 107 % of control | dose: 400.0 mg/kg/injection, schedule: Q01DX001 (sc), vehicle: steriod suspending solution 117 % of control
